Data reported in patent US20240050389A1, “TREATMENT OF IDIOPATHIC PULMONARY FIBROSIS” (priority 2020, published 2024).

Key:
[1] = Tolerability of inhaled (oropharyngeal) itaconate in naïve mice; format: in vivo; settings: inhaled dose of 0.25 mg/kg
Procedure: FIG. 18: Exogenous itaconate is anti-fibrotic. (A-C) Total BAL count, percentage of eosinophils (B) and Percentage of neutrophils (C) of PBS or itaconate dosed mice (0.25-10 mg/kg, oropharyngeal), 24 h post administration (n=4 per group). Data presented as mean±S.D.; Significance was tested by ordinary one-way ANOVA with Sidak's multiple comparison test, **P<0.01.
In order to address whether inhaled itaconate is anti-fibrotic, it was first determined a dose of itaconate that would not provoke an inflammatory response in murine airways. […] We administered inhaled (OPN) itaconate or PBS twice a week for two weeks during the fibrotic phase (starting at day 10 post bleomycin) to WT mice (FIG. 7A); this dosing strategy is in accordance with the American Thoracic guidelines for preclinical assessment of potential therapies for IPF (Jenkins et al., 2017). Subsequently pathology, fibrosis and lung function at d21 post bleomycin were assessed.

[2] = tested on: primary human lung fibroblasts; experiment: JULI-Stage proliferation assay; format: cell-based; settings: 10 mM itaconate, over 72 h
Procedure: (§1) Primary human lung fibroblasts were seeded in 96-well plate for proliferation assay (5,000 per well) or 24-well plate for wound healing assay and serum-starved overnight prior to treatment with itaconate in complete DMEM for 48-72 hrs. For wound healing assays, a standardised scratch was applied in each well using a p10 pipette tip. Images were taken in JULI-Stage system (NanoEntek) at three to five positions per well every 30 minutes and proliferation rate or wound closure were calculated using JU LI-Stage software (NanoEntek).
(§2) Human lung fibroblasts were cultured in media alone or supplemented with itaconate and assessed after 24 h-72 h. […] To assess the ability of itaconate to limit fibrosis related functions of HLFs, proliferation and wound healing assays were carried out in the presence or absence of itaconate.

[3] = tested on: primary human lung fibroblasts; experiment: Seahorse mitochondrial stress test (OCR) of human lung fibroblasts cultured with itaconate; format: cell-based; settings: IPF HLFs (increased vs healthy HLFs), 24 h incubation with itaconate
[4] = tested on: primary human lung fibroblasts; experiment: JULI-Stage wound healing (scratch) assay; format: cell-based; settings: healthy HLFs, 10 mM itaconate, over a 48 h period
Procedure: as §1, §2

[5] = tested on: bleomycin induced pulmonary fibrosis; experiment: Therapeutic inhaled itaconate in bleomycin mouse model; format: in vivo; settings: 0.25 mg/kg oropharyngeal twice a week for two weeks from day 10 post bleomycin, WT mice
Procedure: Unless otherwise stated, all mice were between 8 and 12 weeks of age. Mice were housed in specific-pathogen-free conditions and given food and water ad libitum. All procedures were approved by the United Kingdom Home Office and conducted in strict accordance with the Animals (Scientific Procedures) Act 1986. […] All surgery was performed under ketamine and sodium pentobarbital anaesthesia and all efforts were made to minimize suffering. Mice were administered either 0.05U (1U/ml solution dissolved in PBS) of bleomycin sulphate (Sigma Aldrich) or 50 μl PBS via the oropharyngeal route at day 0 and culled after 7, 21 or 42 days. For therapeutic experiments mice were administered 0.25 mg/kg (1 mM solution dissolved in PBS, 50 μl) itaconic acid (Sigma Aldrich) or PBS via the oropharyngeal route twice a week, beginning 10 days after of bleomycin administration.
Lung function measurements were performed using the Flexivent system (Scireq, Montreal, Canada). After induction of anaesthesia with an i.p. injection of Pentobarbitone (50 mg/Kg, Sigma, UK) and i.m. injection of Ketamine (200 mg/Kg) (Fortdodge Animal Health Ltd, Southampton, UK), mice were tracheotomised and attached to the Flexivent ventilator via a blunt-ended 19-gauge needle. Mice were ventilated using the following settings; tidal volume of 7 ml/Kg body weight, 150 breaths/minute; positive end-expiratory pressure approximately 2 cm H2O. Standardisation of lung volume history was done by performing two deep inflations. Subsequently, measurements of dynamic resistance, dynamic elastance and dynamic compliance were determined using the snapshot-150 perturbation, a single frequency sinusoidal waveform. Resultant data was fitted using multiple linear regression to the single compartment model to determine the above parameters.
Paraffin-embedded sections (4 μm) of lungs (apical lobe) were stained with hematoxylin/eosin (H&E) and Sirius Red. For assessment of fibrosis, the semi-quantitative Ashcroft scoring system was used as previously described (Hubner et al., 2008, Biotechniques, 44(4): 507-11). All scoring and measurements were performed by 3-5 blinded independent observers.
Total RNA was reverse transcribed into cDNA using the High Capacity cDNA Reverse Transcription kit (Life Technologies), or GoScript reverse transcription system (Promega) for AMs, according to manufacturer's instructions. Real-time PCR was performed using fast-qPCR mastermix (Life technologies) on a Viia-7 instrument (Applied Biosciences) with Taqman primers for murine acod1, col-1α1, col3α1, col4α1, fn1, mmp2 or human acod1, cd163, fn1, IL-16, mmp1, mmp9 using actb (Life Technologies) as housekeeping gene.

AMs from IPF patients = experiment: Culture of AMs from IPF patients with itaconate; format: cell-based, human; settings: AMs from IPF patients cultured with itaconate
Excerpt: (§3) Primary human lung fibroblasts were isolated from lung resections of patients undergoing lung cancer surgery or lung transplantation performed after informed consent as approved by an external Research Ethics Committee (REC 15/SC0101) according to the Royal Brompton Hospital protocol (Royal Brompton & Harefield NHS Foundation Trust, 2016) and cultured in complete Dulbecco's modified eagle medium (10% FBS, 100 U/ml penicillin/streptomycin) (Gibco, ThermoFisher) to passage four. Human bronchial epithelial cells (HBE) were obtained from bronchial brushings during the bronchoscopy after informed consent and approved by an external Research Ethics Committee for ILD subjects (Ref. Nos. 10/H0720/12 and 15/SC0101). HBEs were cultured in bronchia.1 e thelial growth (BEGM) medium (Lonza) to passage four. MACS enriched human AM were cultured in complete RPMI (10% FBS, 100U/ml penicillin/streptomycin, Gibco, ThermoFisher) for 24 hrs. Fibroblasts and AM were cultured with 10 mM itaconate in complete medium for 24hrs prior to cell lysis in RLT buffer (QIAGEN) containing 1% 2-Mercaptoethanol (Sigma Aldrich).
1×10^7 BAL cells were stained with anti-CD206 (Biolegend) and Human TruStain FcX block (Biolegend) for 15 minutes at 4° C. in 0.5% FBS/2 mM EDTA in PBS prior to incubation with MACS anti-Cy7 microbeads (Miltenyi Biotec) for 15 minutes at 4° C. […]

[6] = tested on: healthy human primary lung fibroblasts; experiment: Real-time PCR gene expression in fibroblasts cultured with itaconate; format: cell-based; settings: healthy HLFs, 10 mM itaconate, 24 h
Excerpt: as §3

## C=C(CC(=O)O)C(=O)O [itaconate, 2-methylidenebutanedioic acid]
[1]; repeated oropharyngeal administration, naïve mice (data not shown)
  tolerability (no inflammatory response in murine airways): well tolerated
[1]; single oropharyngeal administration, naïve mice
  tolerability (no inflammatory response in murine airways): well tolerated
[2]; HLFs from IPF patients
  proliferative capacity: significantly reduced
[2]; HLFs from healthy donors
  proliferative capacity: significantly reduced
[3]
  maximal respiration: ameliorated
  spare respiratory capacity: ameliorated
[4]
  ability to close a standardized wound: decreased
[5]; d21
  Ashcroft score based on Sirius red staining: significantly ameliorated
  expression of Col4α1 (lung homogenate): significantly ameliorated
  expression of Fn1 (lung homogenate): significantly ameliorated
[5]; d21, FlexiVent
  lung airway compliance: significantly ameliorated
  lung airway elastance: significantly ameliorated
AMs from IPF patients
  pro-fibrotic and pro-inflammatory pathways: inhibits
[6]
  gene expression of FN-1: downregulated
  gene expression of IL-1β: downregulated
